In patent US11419335B2, “N-arylated analogues and uses thereof” (University of Florida Research Foundation, Incorporated, priority 2016, dated 2022):
Like-named read-outs stand apart in the source and are kept apart here. Marks after values point to notes of the source that are not given here. Each block holds one compound with its values, some of them ahead of it.

Legend:
[1] = tested on: methicillin-resistant Staphylococcus epidermidis (MRSE strain ATCC 35984); test: MIC broth microdilution, MRSE 35984; format: cell-based; conditions: for MIC S. epidermidis MRSE 35984: Table 1A
In short: (§1)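 CLSI broth microdilution in Luria Broth: eleven two-fold compound dilutions (0.10 to 100 μM), each well inoculated with ~10^5 log-phase cells. MIC is the lowest concentration preventing growth after 16 to 18 hours at 37° C, supported by OD600. DMSO vehicle, top 1% v/v.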

[2] = tested on: human red blood cells (hRBC); test: Hemolysis of red blood cells; format: cell-based; conditions: for RBC HC50: Table 4, concentration required to lyse 50% of red blood cells
In short: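 hRBCs (2% suspension) exposed to compounds at 0.2–200 μM (ten-point dose-response) for 1 h at 37 °C; after centrifugation, haemoglobin release read as supernatant OD at 405 nm. DMSO set as 0% and Triton X as 100% haemolysis; HC50 from dose-response curves, three independent experiments.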

MRSA BAA-1707 = test: MIC broth microdilution, MRSA BAA-1707; format: cell-based, Staphylococcus aureus; conditions: for MIC MRSA 1707: Table 4
In short: (§2)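 Broth microdilution per CLSI, with eleven two-fold serial compound dilutions in Luria Broth spanning 0.10 to 100 μM. DMSO vehicle control topped at 1% v/v; at least three independent experiments.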

MRSA BAA-44 = test: MIC broth microdilution, MRSA BAA-44; format: cell-based, Staphylococcus aureus
Description: (§3) The minimum inhibitory concentration (MIC) for each tested compound was determined by the broth microdilution method as recommended by the Clinical and Laboratory Standards Institute (CLSI). In a 96-well plate, eleven two-fold serial dilutions of each compound were made in a final volume of 100 μL Luria Broth. Each well was inoculated with ˜10^5 bacterial cells at the initial time of incubation, prepared from a fresh log phase culture (OD600 of 0.5 to 1.0 depending on bacterial strain). […] (MIC values were supported by spectrophotometric readings at OD600). DMSO served as our vehicle and negative control in each microdilution MIC assay. DMSO was serially diluted with a top concentration of 1% v/v.
(§4) Each well was inoculated with ˜10^5 bacterial cells at the initial time of incubation, prepared from a fresh log phase culture (OD600 of 0.5 to 1.0 depending on bacterial strain). […] The concentration range tested for each compound during this study was 0.10 to 100 μM. DMSO served as our vehicle and negative control in each microdilution MIC assay. DMSO was serially diluted with a top concentration of 1% v/v. All MIC values were obtained from a minimum of three independent experiments.

[3] = tested on: Acinetobacter baumannii (ATCC 1794); test: MIC broth microdilution, A. baumannii 1794; format: cell-based; conditions: for MIC A. baumannii 1794: Table 1A, in µM; for MIC A. bau. 1794: Table 4
In short: as §1

[4] = tested on: SA-138 (clinical isolate); test: MIC broth microdilution, SA-138; format: cell-based, Staphylococcus aureus
Description: as §3, §4

[5] = tested on: MRSA-1 (clinical isolate); test: MIC broth microdilution, MRSA-1; format: cell-based, Staphylococcus aureus
Description: as §3, §4

[6] = tested on: methicillin-sensitive Staphylococcus aureus ATCC 29213; test: MIC broth microdilution, S. aureus 29213; format: cell-based
In short: as §2

[7] = tested on: SA-156 (clinical isolate); test: MIC broth microdilution, SA-156; format: cell-based, Staphylococcus aureus
Description: as §3, §4

[8] = tested on: Pseudomonas aeruginosa (PAO1); test: MIC broth microdilution, PAO1; format: cell-based
In short: as §1

[9] = tested on: SA-129 (clinical isolate); test: MIC broth microdilution, SA-129; format: cell-based, Staphylococcus aureus
Description: as §3, §4

[10] = tested on: methicillin-resistant Staphylococcus aureus MRSA-2 (clinical isolate); test: MIC broth microdilution, MRSA-2; format: cell-based; conditions: for MRSA-2 MIC: Table 2A; for MIC: read-out: MIC MRSA-2
In short: as §1

[11] = tested on: SA-147 (clinical isolate); test: MIC broth microdilution, SA-147; format: cell-based, Staphylococcus aureus
Description: as §3, §4

[12] = tested on: vancomycin-resistant Enterococcus faecium (VRE strain ATCC 700221); test: MIC broth microdilution, VRE 700221; format: cell-based; conditions: for MIC E. faecium VRE 700221: Table 1A; for VRE MIC: Table 2A
In short: as §1

[13] = Table 1B, read-out: MIC MRSA BAA-1707
[14] = Table 2A, read-out: MRSA BAA-1707 MIC
[15] = Table 3, read-out: MIC MRSA BAA-1707

Structure (SMILES): CCCCCCCCCCCCCCCCn1cc[n+](Cc2cccc(F)c2)c1C.[Br-] [Compound 18]
MIC S. epidermidis MRSE 35984 [1]: 1.17^a
MRSE 35984 MIC ([1]; Table 2A): 1.17^a μM
MIC MRSE 35984 ([1]; Table 4): 1.17a micromolar
HC50 ([2]; Table 1A): 16.7 µM
RBC HC50 [2]: 16.7 µM
MIC (MRSA BAA-1707; [13]): 1.56 µM
MIC (MRSA BAA-1707; [14]): 1.56 µM
MIC (MRSA BAA-1707; [15]): 1.56 µM
MIC MRSA 1707 (MRSA BAA-1707): 1.56 µM
MIC MRSA BAA-44 (MRSA BAA-44; Table 1B): 2.35^a μM
MIC MRSA BAA-44 (MRSA BAA-44; Table 3): 2.35^a μM
MIC A. baumannii 1794 [3]: 25
MIC A. bau. 1794 [3]: 25 µM
MIC ([4]; Table 1B): 3.13 µM
MIC ([4]; Table 3): 3.13 µM
MIC ([5]; Table 1B): 3.13 µM
MIC ([5]; Table 3): 3.13 µM
MIC S. aureus 29213 ([6]; Table 1B): 4.69^a μM
MIC S. aureus 29213 ([6]; Table 3): 4.69^a μM
MIC ([7]; Table 1B): 3.13 µM
MIC ([7]; Table 3): 3.13 µM
MIC PAO1 ([8]; Table 1A): > 100 µM
MIC PAO1 ([8]; Table 4): >100 µM
MIC ([9]; Table 1B): 3.13 µM
MIC ([9]; Table 3): 3.13 µM
MIC MRSA-2 ([10]; Table 1A): 2.35^a
MIC MRSA-2 ([10]; Table 1B): 2.35^a μM
MRSA-2 MIC [10]: 2.35^a μM
MIC MRSA-2 ([10]; Table 3): 2.35^a μM
MIC MRSA-2 ([10]; Table 4): 2.35a micromolar
MIC SA-147 ([11]; Table 1B): 2.35^a μM
MIC SA-147 ([11]; Table 3): 2.35^a μM
MIC E. faecium VRE 700221 [12]: 1.56 µM
VRE MIC [12]: 1.56 µM
MIC VRE 700221 ([12]; Table 4): 1.56 µM

Structure (SMILES): CCCCCCCCCCCCCCCCn1cc(-c2ccccc2)[n+](C)n1.[I-] [Compound 30]
MIC S. epidermidis MRSE 35984 [1]: 1.56 µM
MIC ([1]; Table 2A, read-out: MRSE 35984 MIC): 1.56 µM
MIC MRSE 35984 ([1]; Table 4): 1.56 µM
HC50 ([2]; Table 1A): 12.6 µM
RBC HC50 [2]: 12.6 µM
MIC (MRSA BAA-1707; [13]): 3.13 µM
MIC (MRSA BAA-1707; [14]): 3.13 µM
MIC (MRSA BAA-1707; [15]): 3.13 µM
MIC MRSA 1707 (MRSA BAA-1707): 3.13 µM
MIC MRSA BAA-44 (MRSA BAA-44; Table 1B): 4.69^a μM
MIC MRSA BAA-44 (MRSA BAA-44; Table 3): 4.69^a μM
MIC A. baumannii 1794 [3]: 12.5
MIC A. bau. 1794 [3]: 12.5 µM
MIC SA-138 ([4]; Table 1B): 2.35^a μM
MIC SA-138 ([4]; Table 3): 2.35^a μM
MIC MRSA-1 ([5]; Table 1B): 4.69^a μM
MIC MRSA-1 ([5]; Table 3): 4.69^a μM
MIC ([6]; Table 1B): 3.13 µM
MIC ([6]; Table 3): 3.13 µM
MIC SA-156 ([7]; Table 1B): 2.35^s μM
MIC SA-156 ([7]; Table 3): 2.35^a μM
MIC PAO1 ([8]; Table 1A): > 100 µM
MIC PAO1 ([8]; Table 4): >100 µM
MIC ([9]; Table 1B): 1.56 µM
MIC ([9]; Table 3): 1.56 µM
MIC MRSA-2 ([10]; Table 1A): 3.13 µM
MIC ([10]; Table 1B): 6.25 µM
MRSA-2 MIC [10]: 3.13 µM
MIC ([10]; Table 3): 6.25 µM
MIC MRSA-2 ([10]; Table 4): 3.13 µM
MIC ([11]; Table 1B): 1.56 µM
MIC ([11]; Table 3): 1.56 µM
MIC E. faecium VRE 700221 [12]: 3.13 µM
VRE MIC [12]: 3.13 µM
MIC VRE 700221 ([12]; Table 4): 3.13 µM

MIC MRSE 35984 ([1]; Table 1): 2.35^a μM
MIC S. epidermidis MRSE 35984 [1]: 2.35^a
MRSE 35984 MIC ([1]; Table 2): 2.35^a μM
MRSE 35984 MIC ([1]; Table 2A): 2.35^a μM
MIC MRSE 35984 ([1]; Table 4): 2.35a micromolar
MIC MRSA BAA-44 (MRSA BAA-44; Table 1B): 2.35^a μM
MIC MRSA BAA-44 (MRSA BAA-44; Table 3): 2.35^a μM
MIC against multidrug-resistant A. baumannii [3]: 6.25 µM
MIC ([3]; Table 1, read-out: MIC A. baumannii 1794): 6.25 µM
MIC A. baumannii 1794 [3]: 6.25
MIC A. bau. 1794 [3]: 6.25 µM
MIC SA-138 ([4]; Table 1B): 2.35^a μM
MIC SA-138 ([4]; Table 3): 2.35^a μM
MIC ([5]; Table 1B): 3.13 µM
MIC MRSA-1 ([5]; Table 3): 4.69^a μM
MIC S. aureus 29213 ([6]; Table 1B): 4.69^a μM
MIC S. aureus 29213 ([6]; Table 3): 4.69^a μM
MIC SA-156 ([7]; Table 1B): 2.35^a μM
MIC SA-156 ([7]; Table 3): 2.35^a μM
MIC against P. aeruginosa [8]: 9.38 µM
MIC PAO1 ([8]; Table 1): 9.38^a μM
MIC PAO1 ([8]; Table 1A): 9.38^a
MIC PAO1 ([8]; Table 4): 9.38a micromolar
MIC SA-129 ([9]; Table 1B): 2.35^a μM
MIC SA-129 ([9]; Table 3): 2.35^a μM
MIC ([10]; Table 1): 3.13 µM
MIC MRSA-2 ([10]; Table 1A): 3.13 µM
MIC MRSA-2 ([10]; Table 1B): 2.35^a μM
MRSA-2 MIC [10]: 2.35^a μM
MIC ([10]; Table 3): 3.13 µM
MIC MRSA-2 ([10]; Table 4): 3.13 µM
MIC ([11]; Table 1B): 3.13 µM
MIC ([11]; Table 3): 3.13 µM
MIC VRE 700221 ([12]; Table 1): 2.35^a μM
MIC E. faecium VRE 700221 [12]: 2.35^a
VRE 700221 MIC ([12]; Table 2): 2.35^a μM
MIC VRE 700221 ([12]; Table 4): 2.35a micromolar
Structure (SMILES): CCCCCCCCCCCC[N+](C)(C)CC[N+](C)(C)CC[N+](C)(C)CCCCCCCCCCCC [QAC-10, reference compound]
HC50 [2]: 7.92 µM
hemolytic activity [2]: potent hemolytic activities
